# Test results reported in article PMC12102759 (Protein Science : A Publication of the Protein Society, 2025).
# Like-named read-outs stand apart in the source and are kept apart here.
# Test system: PABPC1 PABC
# Format: binding, human
# Conditions: DMS-BM library, bait PABPC1 PABC, row aa = residue at this position; for DMS-derived PSSM value, position T1 / DMS-derived PSSM value (averaged), position T1: T = wild type; for DMS-derived PSSM value, position F16 / DMS-derived PSSM value (averaged), position F14 / DMS-derived PSSM value, position F14: F = wild type
# [1] = prey ATXN2, peptide KSTLNPNAKEFNPRSF, S = wild type
# [2] = prey ATXN2, peptide TLNPNAKEFNPRSFSQ, N = wild type
# [3] = prey ATXN2, TLNPNAKEFNPRSF(averaged) over the two overlapping peptides, S = wild type
# [4] = prey ATXN2, peptide KSTLNPNAKEFNPRSF, N = wild type
# [5] = prey ATXN2, peptide KSTLNPNAKEFNPRSF, L = wild type
# [6] = prey ATXN2, peptide TLNPNAKEFNPRSFSQ, P = wild type
# [7] = prey ATXN2, peptide TLNPNAKEFNPRSFSQ
# [8] = prey ATXN2, peptide KSTLNPNAKEFNPRSF, R = wild type
# [9] = prey ATXN2, TLNPNAKEFNPRSF(averaged) over the two overlapping peptides, N = wild type
# [10] = prey ATXN2, TLNPNAKEFNPRSF(averaged) over the two overlapping peptides, L = wild type
# [11] = prey ATXN2, peptide TLNPNAKEFNPRSFSQ, E = wild type
# [12] = prey ATXN2, peptide KSTLNPNAKEFNPRSF
# [13] = prey ATXN2, TLNPNAKEFNPRSF(averaged) over the two overlapping peptides
# [14] = prey ATXN2, TLNPNAKEFNPRSF(averaged) over the two overlapping peptides, P = wild type
# [15] = prey ATXN2, peptide TLNPNAKEFNPRSFSQ, S = wild type
substance,measurement,setting,value
TLNPNAKEFNPRSFSQ L2V (TVNPNAKEFNPRSFSQ),"DMS-derived PSSM value, position L2","prey ATXN2, peptide TLNPNAKEFNPRSFSQ, L = wild type",0
KSTLNPNAKEFNPRSF S15G (KSTLNPNAKEFNPRGF),"DMS-derived PSSM value, position S15",[1],0
TLNPNAKEFNPRSFSQ N3D (TLDPNAKEFNPRSFSQ),"DMS-derived PSSM value, position N3",[2],0.1652
TLNPNAKEFNPRSFSQ N5A (TLNPAAKEFNPRSFSQ),"DMS-derived PSSM value, position N5",[2],0.004479
TLNPNAKEFNPRSF(averaged) S13Y (TLNPNAKEFNPRYF),"DMS-derived PSSM value (averaged), position S13",[3],0.0362
KSTLNPNAKEFNPRSF N7F (KSTLNPFAKEFNPRSF),"DMS-derived PSSM value, position N7",[4],0.07049
KSTLNPNAKEFNPRSF L4P (KSTPNPNAKEFNPRSF),"DMS-derived PSSM value, position L4",[5],0
TLNPNAKEFNPRSFSQ P4Q (TLNQNAKEFNPRSFSQ),"DMS-derived PSSM value, position P4",[6],0.03549
TLNPNAKEFNPRSFSQ T1E (ELNPNAKEFNPRSFSQ),"DMS-derived PSSM value, position T1",[7],0.003724
TLNPNAKEFNPRSFSQ K7V (TLNPNAVEFNPRSFSQ),"DMS-derived PSSM value, position K7","prey ATXN2, peptide TLNPNAKEFNPRSFSQ, K = wild type",0.007815
TLNPNAKEFNPRSFSQ N3L (TLLPNAKEFNPRSFSQ),"DMS-derived PSSM value, position N3",[2],0
TLNPNAKEFNPRSF(averaged) K7T (TLNPNATEFNPRSF),"DMS-derived PSSM value (averaged), position K7","prey ATXN2, TLNPNAKEFNPRSF(averaged) over the two overlapping peptides, K = wild type",0.01485
TLNPNAKEFNPRSFSQ P11Y (TLNPNAKEFNYRSFSQ),"DMS-derived PSSM value, position P11",[6],0.04593
KSTLNPNAKEFNPRSF L4W (KSTWNPNAKEFNPRSF),"DMS-derived PSSM value, position L4",[5],0
KSTLNPNAKEFNPRSF R14L (KSTLNPNAKEFNPLSF),"DMS-derived PSSM value, position R14",[8],0.02501
TLNPNAKEFNPRSF(averaged) N10E (TLNPNAKEFEPRSF),"DMS-derived PSSM value (averaged), position N10",[9],0.03135
TLNPNAKEFNPRSF(averaged) N5T (TLNPTAKEFNPRSF),"DMS-derived PSSM value (averaged), position N5",[9],0.01041
TLNPNAKEFNPRSF(averaged) L2A (TANPNAKEFNPRSF),"DMS-derived PSSM value (averaged), position L2",[10],0
TLNPNAKEFNPRSFSQ E8Q (TLNPNAKQFNPRSFSQ),"DMS-derived PSSM value, position E8",[11],0.04954
TLNPNAKEFNPRSFSQ T1A (ALNPNAKEFNPRSFSQ),"DMS-derived PSSM value, position T1",[7],0.03403
KSTLNPNAKEFNPRSF L4D (KSTDNPNAKEFNPRSF),"DMS-derived PSSM value, position L4",[5],0
KSTLNPNAKEFNPRSF N12Y (KSTLNPNAKEFYPRSF),"DMS-derived PSSM value, position N12",[4],0.1026
KSTLNPNAKEFNPRSF F16P (KSTLNPNAKEFNPRSP),"DMS-derived PSSM value, position F16",[12],0.0009324
TLNPNAKEFNPRSF(averaged) T1N (NLNPNAKEFNPRSF),"DMS-derived PSSM value (averaged), position T1",[13],0.01868
TLNPNAKEFNPRSF(averaged) N3I (TLIPNAKEFNPRSF),"DMS-derived PSSM value (averaged), position N3",[9],0
TLNPNAKEFNPRSF(averaged) A6M (TLNPNMKEFNPRSF),"DMS-derived PSSM value (averaged), position A6","prey ATXN2, TLNPNAKEFNPRSF(averaged) over the two overlapping peptides, A = wild type",0
TLNPNAKEFNPRSF(averaged) L2H (THNPNAKEFNPRSF),"DMS-derived PSSM value (averaged), position L2",[10],0
TLNPNAKEFNPRSF(averaged) T1S (SLNPNAKEFNPRSF),"DMS-derived PSSM value (averaged), position T1",[13],0.002379
TLNPNAKEFNPRSFSQ N5L (TLNPLAKEFNPRSFSQ),"DMS-derived PSSM value, position N5",[2],0.06159
TLNPNAKEFNPRSFSQ E8D (TLNPNAKDFNPRSFSQ),"DMS-derived PSSM value, position E8",[11],0
KSTLNPNAKEFNPRSF N12G (KSTLNPNAKEFGPRSF),"DMS-derived PSSM value, position N12",[4],0.02172
TLNPNAKEFNPRSF(averaged) F14S (TLNPNAKEFNPRSS),"DMS-derived PSSM value (averaged), position F14",[13],0.01539
KSTLNPNAKEFNPRSF S2I (KITLNPNAKEFNPRSF),"DMS-derived PSSM value, position S2",[1],0.01393
TLNPNAKEFNPRSF(averaged) S13H (TLNPNAKEFNPRHF),"DMS-derived PSSM value (averaged), position S13",[3],0.06517
KSTLNPNAKEFNPRSF N12E (KSTLNPNAKEFEPRSF),"DMS-derived PSSM value, position N12",[4],0.06073
TLNPNAKEFNPRSFSQ F14H (TLNPNAKEFNPRSHSQ),"DMS-derived PSSM value, position F14",[7],0.09586
TLNPNAKEFNPRSF(averaged) P4S (TLNSNAKEFNPRSF),"DMS-derived PSSM value (averaged), position P4",[14],0.01466
TLNPNAKEFNPRSF(averaged) T1H (HLNPNAKEFNPRSF),"DMS-derived PSSM value (averaged), position T1",[13],0.01509
TLNPNAKEFNPRSFSQ N3F (TLFPNAKEFNPRSFSQ),"DMS-derived PSSM value, position N3",[2],0
TLNPNAKEFNPRSFSQ T1Y (YLNPNAKEFNPRSFSQ),"DMS-derived PSSM value, position T1",[7],0.3306
KSTLNPNAKEFNPRSF N12R (KSTLNPNAKEFRPRSF),"DMS-derived PSSM value, position N12",[4],0.008293
KSTLNPNAKEFNPRSF P13K (KSTLNPNAKEFNKRSF),"DMS-derived PSSM value, position P13","prey ATXN2, peptide KSTLNPNAKEFNPRSF, P = wild type",0
TLNPNAKEFNPRSFSQ S13W (TLNPNAKEFNPRWFSQ),"DMS-derived PSSM value, position S13",[15],0.02517
TLNPNAKEFNPRSFSQ P4E (TLNENAKEFNPRSFSQ),"DMS-derived PSSM value, position P4",[6],0.001688
TLNPNAKEFNPRSF(averaged) L2P (TPNPNAKEFNPRSF),"DMS-derived PSSM value (averaged), position L2",[10],0.01878
TLNPNAKEFNPRSFSQ S13G (TLNPNAKEFNPRGFSQ),"DMS-derived PSSM value, position S13",[15],0.1675
TLNPNAKEFNPRSFSQ F14T (TLNPNAKEFNPRSTSQ),"DMS-derived PSSM value, position F14",[7],0.006633
KSTLNPNAKEFNPRSF E10H (KSTLNPNAKHFNPRSF),"DMS-derived PSSM value, position E10","prey ATXN2, peptide KSTLNPNAKEFNPRSF, E = wild type",0.3776
KSTLNPNAKEFNPRSF F16K (KSTLNPNAKEFNPRSK),"DMS-derived PSSM value, position F16",[12],0.01965
KSTLNPNAKEFNPRSF S15A (KSTLNPNAKEFNPRAF),"DMS-derived PSSM value, position S15",[1],0.02636
TLNPNAKEFNPRSFSQ P4S (TLNSNAKEFNPRSFSQ),"DMS-derived PSSM value, position P4",[6],0.01574
KSTLNPNAKEFNPRSF R14H (KSTLNPNAKEFNPHSF),"DMS-derived PSSM value, position R14",[8],0.02913
KSTLNPNAKEFNPRSF N5G (KSTLGPNAKEFNPRSF),"DMS-derived PSSM value, position N5",[4],0
TLNPNAKEFNPRSFSQ F14I (TLNPNAKEFNPRSISQ),"DMS-derived PSSM value, position F14",[7],0.0189
TLNPNAKEFNPRSF(averaged) N5W (TLNPWAKEFNPRSF),"DMS-derived PSSM value (averaged), position N5",[9],0.0006294
TLNPNAKEFNPRSFSQ R12P (TLNPNAKEFNPPSFSQ),"DMS-derived PSSM value, position R12","prey ATXN2, peptide TLNPNAKEFNPRSFSQ, R = wild type",0.005288
TLNPNAKEFNPRSF(averaged) P4V (TLNVNAKEFNPRSF),"DMS-derived PSSM value (averaged), position P4",[14],0.4012
TLNPNAKEFNPRSFSQ E8N (TLNPNAKNFNPRSFSQ),"DMS-derived PSSM value, position E8",[11],0.1259
TLNPNAKEFNPRSF(averaged) F14H (TLNPNAKEFNPRSH),"DMS-derived PSSM value (averaged), position F14",[13],0.06346
TLNPNAKEFNPRSF(averaged) N10R (TLNPNAKEFRPRSF),"DMS-derived PSSM value (averaged), position N10",[9],0.02307
TLNPNAKEFNPRSFSQ S13L (TLNPNAKEFNPRLFSQ),"DMS-derived PSSM value, position S13",[15],0.06939
TLNPNAKEFNPRSFSQ A6P (TLNPNPKEFNPRSFSQ),"DMS-derived PSSM value, position A6","prey ATXN2, peptide TLNPNAKEFNPRSFSQ, A = wild type",0
